Where “and” joins values, the source holds several entries; their conditions need not be identical. Equal values may be shown once. Where a name gives a salt, the structure may show the parent alone.

Broadly, the IC50 is the concentration needed to halve the response being measured.

The first assay has as its target T1, E3 ubiquitin ligase CRBN (Homo sapiens, UniProt Q96SW2).
T1 construct: purchased PE (PerkinElmer) 64BDCRBNPEG
In words: Binding activity to E3 ubiquitin ligase CRBN (HTRF competitive binding with XL665-labeled thalidomide, Cereblon binding kit). The settings on record: competition with XL665-labeled thalidomide for GST-labelled CRBN protein, 3 h at room temperature. As to the method:
The binding activity of the compound disclosed in the present patent to the E3 ubiquitin ligase CRBN was determined by competitive binding of the disclosed compound with XL665-labeled thalidomide to the CRBN protein, thereby preventing the occurrence of fluorescence resonance energy transfer (FRET). Accordingly, the binding affinity of the compound to the CRBN protein was determined.
CRBN binding activity test kit (CEREBLON BINDING KITS (PE, 64BDCRBNPEG)).
The assay was based on a homogeneous time-resolved fluorescence (HTRF) technology. When a donor and an acceptor were in close proximity, the donor transferred energy to the acceptor so that the acceptor was excited to emit an emission light 665 nm.
The donor used in the kit of the present disclosure was a europium-labeled GST antibody (GST Eu Cryptate Antibody), and the acceptor was thalidomide labeled with XL665 (Thalidomide-Red reagent). The donor bound to the CRBN protein comprising a GST label. The compound disclosed in the present patent competitively bound to the CRBN protein with thalidomide. The binding activity of the compound was determined according to the fluorescence value emitted by the acceptor at 665 nm. The stronger binding force of the compound indicated the weaker signal.
The donor and the acceptor were diluted 50-fold respectively by using a kit buffer (PROTAC binding buffer 1). The CRBN protein was diluted 45-fold. The 8 mM solution of the compound disclosed in the present patent was diluted 10-fold with 1X diluent from the kit, followed by 5-fold serial dilutions for a total of 7 consecutive dilutions.
5 µl of compound, 5 µl of diluted CRBN protein and 10 µl of donor-acceptor isovolumetric mixture were sequentially added to each well of a white 384-well plate (PE, Part number:6008280). The above system was incubated for 3 h at room temperature.
A ratio of acceptor to donor emission signals for each individual well was calculated. Ratio = signal value at 665 nm/signal value at 620 nm * 10^4 Coefficient of variation (CV) = standard deviation (SD)/average Ratio × 100 [formula]
The IC50 value was calculated based on the compound concentration, Ratio and the coefficient of variation by using GraphPad Prism. Table 10 Binding activity of compounds 1-18 to E3 ubiquitin ligase CRBN
For orientation: In TR-FRET formats the signal depends on donor and acceptor labels being close together.
Take `O=C1CCC(c2nnc(N3CCNCC3)cc2-c2ccccc2)C(=O)N1` (stereo not shown) [Compound 19, 3-(4-phenyl-6-(piperazin-1-yl)pyridazin-3-yl)piperidine-2,6-dione hydrochloride salt]: the IC50 was over 100 µM.

`O=C1CCC(c2nnc(N3CCNCC3)cc2-c2ccncc2)C(=O)N1` (stereo not shown) [Compound 20, 3-(6-(piperazin-1-yl)-4-(pyridin-4-yl)pyridazin-3-yl)pi peridine-2,6-dione hydrochloride salt] returned an IC50 of over 100 µM.

With `Cc1cc(C2CCC(=O)NC2=O)nnc1N1CCNCC1` (stereo not shown) [Compound 21, 3-(5-methyl-6-(piperazin-1-yl)pyridazin-3-yl)piperidine-2,6-dione hydrochloride salt], the IC50 is 50 µM.

Take `CCc1cc(C2CCC(=O)NC2=O)nnc1N1CCNCC1` (stereo not shown) [Compound 22, 3-(5-ethyl-6-(piperazin-1-yl)pyridazin-3-yl)piperidine-2,6-dione hydrochloride salt]: the IC50 was over 50 µM.

The molecule `CC(C)c1cc(C2CCC(=O)NC2=O)nnc1N1CCNCC1` (stereo not shown) [Compound 23, 3-(5-isopropyl-6-(piperazin-1-yl)pyridazin-3-yl)piper idine-2,6-dione hydrochloride salt] registered an IC50 of 100 µM.

Molecule `O=C1CCC(c2cc(C3CC3)c(N3CCNCC3)nn2)C(=O)N1` (stereo not shown) [Compound 24, 3-(5-cyclopropyl-6-(piperazin-1-yl)pyridazin-3-yl)pip eridine-2,6-dione hydrochloride salt] displayed an IC50 of over 50 µM.

In the case of `O=C1CCC(c2cc(F)c(N3CCNCC3)nn2)C(=O)N1` (stereo not shown) [Compound 25, 3-(5-fluoro-6-(piperazin-1-yl)pyridazin-3-yl)piperidine-2,6-dione hydrochloride salt], the IC50 is 50 µM.

`N#Cc1cc(C2CCC(=O)NC2=O)nnc1N1CCNCC1` (stereo not shown) [Compound 26, 6-(2,6-dioxopiperidin-3-yl) -3-(piperazin-1-yl)pyridazine-4-carbonitrile hydrochloride salt] registered an IC50 of 50 µM.

Take `O=C1CCC(c2cc(C(F)(F)F)c(N3CCNCC3)nn2)C(=O)N1` (stereo not shown) [Compound 27, 3-(6-(piperazin-1-yl)-5-(trifluoromethyl)pyridazin-3-yl)piperidine-2,6-dione hydrochloride salt]: the IC50 was determined as 50 µM.

Consider `COc1cc(C2CCC(=O)NC2=O)nnc1N1CCNCC1` (stereo not shown) [Compound 28, 3-(5-methoxy-6-(piperazin-1-yl)pyridazin-3-yl)piper idine-2,6-dione hydrochloride salt], for which the IC50 amounted to 50 µM.

In turn, `Nc1cc(C2CCC(=O)NC2=O)nnc1N1CCNCC1` (stereo not shown) [Compound 29, 3-(5-amino-6-(piperazin-1-yl)pyridazin-3-yl)piperidine-2,6-dione hydrochloride salt] showed an IC50 of 50 µM.

Take `Cc1c(C2CCC(=O)NC2=O)nnc(N2CCNCC2)c1C` (stereo not shown) [Compound 33, 3-(4,5-dimethyl-6-(piperazin-1-yl)pyridazin-3-yl)pip eridine-2,6-dione hydrochloride salt]: the IC50 was determined as 50 µM.

With `O=C1CCC(F)(c2ccc(N3CCNCC3)nn2)C(=O)N1` (stereo not shown) [Compound 38, 3-fluoro-3-(6-(piperazin-1-yl)pyridazin-3-yl)piperidine-2,6-dione hydrochloride salt], the IC50 came to 50 µM.

On to `[2H]C1(c2ccc(N3CCNCC3)nn2)CCC(=O)NC1=O` (stereo not shown) [Compound 39, 3-(6-(piperazin-1-yl)pyridazin-3-yl)piperidine-2,6-dione-3-dhydrochloride salt], for which the IC50 is 50 µM.

In the case of `O=C1CCN(c2ccc(N3CCNCC3)nn2)C(=O)N1` [Compound 40, 1-(6-(piperazin-1-yl)pyridazin-3-yl)dihydropyrimidine-2,4(1H,3H)-dione hydrochloride salt], the IC50 amounted to 50 µM.

`COc1nnc(C2CCC(=O)NC2=O)cc1N1CCNCC1` (stereo not shown) [Compound 41, 3-(6-methoxy-5-(piperazin-1-yl)pyridazin-3-yl)piper idine-2,6-dione hydrochloride salt] registered an IC50 of 50 µM.

Turning to `CN(C)c1nnc(C2CCC(=O)NC2=O)cc1N1CCNCC1` (stereo not shown) [Compound 42, 3-(6-(dimethylamino)-5-(piperazin-1-yl)pyridazin-3-yl)piperidine-2,6-dione hydrochloride salt], the IC50 is 50 µM.

Consider `CN1C(=O)CCC(c2ccc(N3CCNCC3)nn2)C1=O` (stereo not shown) [Compound 43, 1-methyl-3-(6-(piperazin-1-yl)pyridazin-3-yl)piperidine-2,6-dione hydrochloride salt], for which the IC50 is over 100 µM.

Staying with this assay, now noted: competition with XL665-labeled thalidomide for GST-labelled CRBN protein, 3 h at room temperature, read-out: IC50.
`CN(C)Cc1cc(C2CCC(=O)NC2=O)nnc1N1CCNCC1` (stereo not shown) [Compound 30, 3-(5-((dimethylamino)methyl)-6-(piperazin-1-yl)pyridazin-3-yl)piperidine-2,6-dione bis-hydrochloride salt]: the IC50 is > 50 µM and 100 µM.

In another assay the target is T2, androgen receptor (AR) (Homo sapiens, UniProt P10275, T878A).
T2 construct: endogenous in cells; host or cells: LNCaP
The experiment in a line: Reduction of androgen receptor (AR) expression levels in LNCaP cells (Western blot, DC50 and Dmax). It counts as cell-based. The settings on record: 24 h of treatment, 0.01, 0.1, 1 and 10 µM, α-tubulin internal reference. The protocol: The human prostate cancer cell line LNCaP cells selected in this experiment were cultured in an RPMI-1640 culture medium containing 10% fetal bovine serum (Gibco, USA) in an incubator under the conditions of 37°C, 5% CO2 and 95% humidity. When the growth density reached 80%, the cells were inoculated into a 6-well plate with 5×10^5 cells per well. After culturing for 24 h, the culture medium was replaced with a culture medium containing the compounds so that the final concentrations of the compounds were 0.01, 0.1, 1 and 10 µM. After 24 h of treatment, the supernatant was removed, the cells were washed twice with PBS, and a RIPA lysis buffer containing a protease inhibitor and a phosphatase inhibitor was added to the cells. After lysis and centrifugation, the total protein extract was obtained. The concentration of the protein in the extract was determined by using the BCA method.
Protein electrophoresis was performed by using SDS-PAGE, followed by electrotransfer at a constant current of 200 mA for 90 min to transfer proteins onto the PVDF membrane. The PVDF membrane was placed in 5% skim milk and blocked for 1 h at room temperature. An anti-Androgen Receptor antibody [EPR1535(2)] (ab133273)(1:10000) was added for incubation overnight at 4°C. The membrane was washed with TBST for 3 times, with 10 min each time. The mixture of the membrane and a secondary antibody were incubated for 60 min at room temperature. The membrane was washed with TBST for 3 times, with 10 min each time. The ECL light-emitting liquid was dropwise added for exposure. Each sample was simultaneously detected using α-tubulin protein as an internal reference. The protein profile was analyzed for grayscale values using analysis software ImageJ. The gray scale correction value of each sample was calculated by using the formula: gray scale correction value = (gray scale value of the target protein/gray scale value of the corresponding internal reference) […] 10^3. Then, the calculated gray scale correction value was compared with a control gray scale correction value to calculate a degradation rate. Then, nonlinear curve fitting was performed on a logarithmic concentration-inhibition rate using Prism to obtain the DC50 and Dmax values of the compound.
Table 14 summarizes the evaluation of protein degraders PRTA-01 to 06 in reducing AR protein expression levels. DC50 represents the concentration of the protein degrader when it induces AR protein degradation to 50% of the initial level, and the level is classified as A (DC50<1 µM), B (DC50 1~10 µM), or C (DC50>10 µM). Dmax represents the proportion of the maximum degree of […] protein degradation induced by the protein degrader to the total AR protein amount, with the level graded as A (Dmax>85%), B (Dmax85-50%), or C (Dmax<50%). Table 14 Evaluation of protein degraders PRTA-01 to 06 in reducing AR protein expression levels
For orientation: Immunoblotting shows a protein as a band on a membrane.
Molecule `N#Cc1ccc(O[C@H]2CC[C@H](NC(=O)c3ccc(N4CCN(CC5CCN(c6ccc(C7CCC(=O)NC7=O)nn6)CC5)CC4)cc3)CC2)cc1Cl` (stereo partly shown) [PRTA-01] had a DC50 of under 1 µM and a Dmax of 50 to 85%.

In the case of `N#Cc1ccc(OC2CCC(NC(=O)c3ccc(N4CCC(CN5CCN(c6ccc(C7CCC(=O)NC7=O)nn6)CC5)CC4)nn3)CC2)cc1Cl` (stereo not shown) [PRTA-02], the DC50 is under 1 µM and the Dmax was over 85%.

Turning to `N#Cc1ccc(O[C@H]2CC[C@H](NC(=O)c3ccc(N4CCC(CN5CCN(c6ccc(N7CCC(=O)NC7=O)nn6)CC5)CC4)nn3)CC2)cc1Cl` [PRTA-03], the DC50 was under 1 µM and the Dmax is over 85%.

Take `Cc1cc(N2CCN(CC3CCN(c4ccc(C(=O)N[C@H]5CC[C@H](Oc6ccc(C#N)c(Cl)c6)CC5)nn4)CC3)CC2)nnc1C1CCC(=O)NC1=O` (stereo partly shown) [PRTA-04]: the DC50 lay in the range of 1 to 10 µM and the Dmax is 50 to 85%.

The molecule `N#Cc1ccc(O[C@H]2CC[C@H](NC(=O)c3ccc(N4CCC(CN5CC6(C5)CN(c5ccc(C7CCC(=O)NC7=O)nn5)C6)CC4)cc3)CC2)cc1Cl` (stereo partly shown) [PRTA-05] returned a DC50 of under 1 µM and a Dmax of 50 to 85%.

In turn, `N#Cc1ccc(O[C@H]2CC[C@H](NC(=O)c3ccc(N4CCC(n5cc(C#Cc6ccc(C7CCC(=O)NC7=O)nn6)cn5)CC4)cc3)CC2)cc1Cl` (stereo partly shown) [PRTA-06] showed a DC50 of under 1 µM and a Dmax of over 85%.

These data come from patent publication EP4763838A1, “COMPOUND AND USE THEREOF” (Ocean University of China, priority 2023, dated 2025).
